Test results published in publication PMC3849272, “Strong cellulase inhibitors from the hydrothermal pretreatment of wheat straw” (Biotechnology for Biofuels, 2013).

Legend:
TrCel7A = target: T1, TrCel7A (Trichoderma reesei, UniProt P62694); test: inhibition of 4-methylumbelliferyl-beta-lactoside hydrolysis, fluorescence, initial rates; type: biochemical; conditions: 5 μM MUL, 10 nM enzyme, 50 mM sodium acetate pH 5.0, BSA 0.1 g/l, 35°C
T1 construct: gene cbh1; native enzyme purified from culture filtrate of T. reesei QM 9414; secreted, signal peptide removed; about 50 kDa
T1 sequence (P62694 18-513): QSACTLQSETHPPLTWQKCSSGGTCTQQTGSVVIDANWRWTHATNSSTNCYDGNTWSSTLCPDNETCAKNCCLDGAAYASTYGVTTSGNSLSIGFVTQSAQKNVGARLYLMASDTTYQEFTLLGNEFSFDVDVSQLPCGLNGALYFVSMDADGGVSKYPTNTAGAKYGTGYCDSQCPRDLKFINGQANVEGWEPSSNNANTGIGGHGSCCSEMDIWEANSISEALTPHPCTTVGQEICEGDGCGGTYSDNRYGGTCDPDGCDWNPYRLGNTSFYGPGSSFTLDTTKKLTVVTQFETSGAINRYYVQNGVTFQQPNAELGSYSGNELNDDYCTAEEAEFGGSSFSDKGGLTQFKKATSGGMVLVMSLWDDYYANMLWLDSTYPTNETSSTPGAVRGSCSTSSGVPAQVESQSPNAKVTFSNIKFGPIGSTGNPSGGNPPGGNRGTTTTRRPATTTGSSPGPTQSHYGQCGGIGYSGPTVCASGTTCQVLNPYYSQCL

TrCel7B = target: T2, TrCel7B (Trichoderma reesei, UniProt P07981); test: as above; type: biochemical; conditions: 20 μM MUL, 10 nM enzyme, 50 mM sodium acetate pH 5.0, BSA 0.1 g/l, 35°C
T2 construct: gene egl1; native enzyme purified from culture filtrate of T. reesei QM 9414; secreted, signal peptide removed
T2 sequence (P07981 23-459): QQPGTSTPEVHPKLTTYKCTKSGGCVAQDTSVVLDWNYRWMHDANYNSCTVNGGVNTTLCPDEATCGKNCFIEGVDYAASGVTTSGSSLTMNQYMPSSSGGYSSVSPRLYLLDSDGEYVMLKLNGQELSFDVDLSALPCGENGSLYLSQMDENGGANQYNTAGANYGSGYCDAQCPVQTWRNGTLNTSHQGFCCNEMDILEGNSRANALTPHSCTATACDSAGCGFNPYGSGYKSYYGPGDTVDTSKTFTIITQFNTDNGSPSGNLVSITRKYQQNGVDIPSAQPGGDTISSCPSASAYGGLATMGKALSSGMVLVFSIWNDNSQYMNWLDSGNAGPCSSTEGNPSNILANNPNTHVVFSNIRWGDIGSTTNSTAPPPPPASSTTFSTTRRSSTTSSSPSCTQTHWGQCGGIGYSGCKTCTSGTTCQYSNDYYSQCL

`OC[C@H]1O[C@@H](O[C@H]2[C@H](O)[C@@H](O)C(O)O[C@@H]2CO)[C@H](O)[C@@H](O)[C@@H]1O` (some centres unmarked) [cellobiose] gave an IC50 (TrCel7A) of 0.036 ± 0.006 mM and an IC50 (TrCel7B) of 8.9 ± 0.4 mM.
